Measurements: US6852700B1, “Colostrinin, and uses thereof” (Ludwig Hirzfeld Institute of Immunology and Experimental …, priority 1996, dated 2005)
Ends that are not written are not given here.

Key:
human volunteers = settings: tablets for sucking, at least 25 μg, at least one daily, about 3 weeks
[1] = tested on: lymphocytes isolated from cord blood (CBL); assay: Induction of cytokines in a culture of lymphocytes isolated from cord blood (CBL); assay type: cell-based, human; settings: 20 hours
Method: Cord blood obtained from the Gynaecological-Obstetric Department of the Specialist District Hospital in Wroclaw. Induction of cytokines by Colostrinin™ in vitro in lymphocytes of cord blood taken 4-6 hours after parturition is effected in the following way.
The lymphocytes are isolated using a Ficoll-Paque® gradient containing 5.7 g of the component Ficoll 400 and 9.0 g of the component Diatrizoate Sodium per 100 ml. The lymphocytes isolated are suspended in RPMI-1640 culture medium at density of 2×10^6 lymphocyte cells per 1 ml of culture medium. Colostrinin™ at concentration of 1-20 μg/ml or phytohaemagglutinin at concentration of 10 μg/ml is added to the lymphocyte suspension. The culture is incubated for 20 hours at a temperature of 37° C. Then the level of cytokines in the culture fluids is determined by biological methods.

sarcoma 180 = assay: Growth of sarcoma 180 in mice; assay type: in vivo; settings: intraperitoneal administration in mice
mice = assay: Toxicological studies on mice; assay type: in vivo; settings: both after oral and parenteral administration
[2] = tested on: lymphocytes present in whole blood; assay: Induction of cytokines in vitro in whole blood cultures; assay type: cell-based, human
Method: Induction of cytokines by the polypeptide Colostrinin™ in vitro on blood taken from healthy and sick volunteers taking the pharmaceutical in the form stated in Example III, in cyclic treatment, is carried out as follows.
Whole blood, containing 10 units per 1 ml of heparin without preservatives is diluted at 1:10 ratio in RPMI 1640 culture medium. Incubation is conducted in the same culture medium without inducers (negative control), or in the presence of 1-100 μg/ml of the polypeptide Colostrinin™ or in the presence of 2 μg/ml blood of phytohaemagglutinin (PHA) and 2 μg/ml blood of lipopolysaccharide (LPS), at a temperature of 37° C., in an atmosphere of 5% carbon dioxide, for 20 hours. Samples with mixture of PHA and LPS are the positive control, as they can stimulate the maximum quantities of cytokines.

mice of the NZB line = assay: Haemolytic anaemia in mice of the NZB line; assay type: in vivo; settings: intraperitoneal administration
[3] = tested on: mice exposed to gamma radiation; assay: Radiation sickness in mice exposed to gamma radiation; assay type: in vivo
[4] = tested on: patients with Alzheimer's disease; assay: Treatment of volunteer patients with Alzheimer's disease with tablets for sucking; assay type: in vivo, human
Method: (§1) The method of treatment of disorders of the central nervous system was investigated on a group of volunteer patients in the early and moderate stages of Alzheimer's disease. The dosage units were administered in the form of tablets for sucking, between meals, containing 0.00015 g of Colostrinin™ defined in Examples I and III. Firstly, 1 tablet was used daily for a period of 3 weeks, then therapy was interrupted for 2-4 weeks and treatment was repeated, administering 2 tablets daily for 3 weeks. […] This is manifested by an inability to synthesise IFN and also tumour necrosis factor TNF-α. This phenomenon permits quantitative measurements of the action of active agent.
This was followed by a 3-week pause in treatment (during the pause, the tolerance to the inducer returns to normal). Blood samples for investigating stimulation of IFN-γ by Colostrinin™ and control inducers (PHA-10 μg/ml) were taken every week. The method of performing the tests for induction of cytokines and their quantitative determination were described in previous sections.
as §1, with “early” for “early and moderate”, “sucking” for “sucking,”, “NP” for “Colostrinin™”, “Example II.” for “Examples I and III.”, “3” for “2-4”

[5] = donor four breast cancer, dose 10 μg/ml
[6] = donor four breast cancer, dose 100 μg/ml
[7] = donor one. Alzheimer's disease, dose 10 μg/ml
[8] = donor one. Alzheimer's disease, dose 100 μg/ml
[9] = donor six healthy young soldier, dose 1 μg/ml
[10] = donor six healthy young soldier, dose 10 μg/ml
[11] = donor six healthy young soldier, dose 100 μg/ml
[12] = donor three schizophrenia, dose 10 μg/ml
[13] = donor three schizophrenia, dose 100 μg/ml
[14] = donor two healthy young soldier, dose 1 μg/ml
[15] = donor two healthy young soldier, dose 10 μg/ml
[16] = donor two healthy young soldier, dose 100 μg/ml
[17] = healthy volunteers, inducer dose 10 μg/ml, 20 hours
[18] = healthy volunteers, inducer dose 100 μg/ml, 20 hours
[19] = patients with Alzheimer's disease, inducer dose 10 μg/ml
[20] = patients with Alzheimer's disease, inducer dose 100 μg/ml
[21] = early and moderate Alzheimer's disease, 1 tablet daily 3 weeks, pause 2-4 weeks, 2 tablets daily 3 weeks
[22] = early Alzheimer's disease, NP tablets, 1 daily 3 weeks, pause 3 weeks, 2 daily 3 weeks

Colostrinin ™
reactivity to induction of IFN-γ and TNF-α (human volunteers): state of hyporeactivity | Cytokines IFN ([1]; dose 1 μg/ml): 38 ± 66 unit/ml | Cytokines TNF ([1]; dose 1 μg/ml): 16 ± 17 unit/ml | Cytokines IFN ([1]; dose 10 μg/ml): 78 ± 80 unit/ml | Cytokines TNF ([1]; dose 10 μg/ml): 37 ± 35 unit/ml | Cytokines IFN ([1]; dose 20 μg/ml): 89 ± 79 unit/ml | Cytokines TNF ([1]; dose 20 μg/ml): 59 ± 41 unit/ml | growth of sarcoma 180 (sarcoma 180): inhibit the growth of sarcoma 180 | LD50 (mice): above 1.25 g/kg of body weight | production of cytokines, dose dependence ([2]; concentrations of 1-100 μg/ml, whole blood): stimulates the production of cytokines in a dose-dependent fashion | production of cytokines (IFN-γ, TNF-α, IL-6, IL-10, growth factors) ([2]; cultures of lymphocytes of human peripheral blood (including cord blood)): stimulates the production of cytokines | Titres of IFN determined by Antivirus biotest [2, 5]: 50 units/ml | Titres of IFN determined by ELISA IFN-γ [2, 5]: 307 pg/mL | Titres of IFN determined by Antivirus biotest [2, 6]: 70 units/ml | Titres of IFN determined by ELISA IFN-γ [2, 6]: 523 pg/mL | Titres of IFN determined by Antivirus biotest [2, 7]: 20 units/ml | Titres of IFN determined by ELISA IFN-γ [2, 7]: 427 pg/mL | Titres of IFN determined by Antivirus biotest [2, 8]: 40 units/ml | Titres of IFN determined by ELISA IFN-γ [2, 8]: 400 pg/mL | Titres of IFN determined by Antivirus biotest [2, 9]: 100 units/ml | Titres of IFN determined by ELISA IFN-γ [2, 9]: 2690 pg/mL | Titres of IFN determined by Antivirus biotest [2, 10]: 200 units/ml | Titres of IFN determined by ELISA IFN-γ [2, 10]: 3778 pg/mL | Titres of IFN determined by Antivirus biotest [2, 11]: 600 units/ml | Titres of IFN determined by ELISA IFN-γ [2, 11]: 3941 pg/mL | Titres of IFN determined by Antivirus biotest [2, 12]: 6 units/ml | Titres of IFN determined by ELISA IFN-γ [2, 12]: 29 pg/mL | Titres of IFN determined by Antivirus biotest [2, 13]: 6 units/ml | Titres of IFN determined by ELISA IFN-γ [2, 13]: 29 pg/mL | Titres of IFN determined by Antivirus biotest [2, 14]: 100 units/ml | Titres of IFN determined by ELISA IFN-γ [2, 14]: 1413 pg/mL | Titres of IFN determined by Antivirus biotest [2, 15]: 300 units/ml | Titres of IFN determined by ELISA IFN-γ [2, 15]: 3402 pg/mL | Titres of IFN determined by Antivirus biotest [2, 16]: 300 units/ml | Titres of IFN determined by ELISA IFN-γ [2, 16]: 2920 pg/mL | Cytokines IFN [2, 17]: 50 ± 59 unit/ml | Cytokines TNF [2, 17]: 316 ± 371 unit/ml | Cytokines IFN [2, 18]: 344 ± 254 unit/ml | Cytokines TNF [2, 18]: 670 ± 560 unit/ml | Cytokines IFN [2, 19]: 15 ± 9 unit/ml | Cytokines TNF [2, 19]: 182 ± 158 unit/ml | Cytokines IFN [2, 20]: 21 ± 14 unit/ml | Cytokines TNF [2, 20]: 249 ± 187 unit/ml | development of haemolytic anaemia (mice of the NZB line): inhibits the development of haemolytic anaemia | protection against radiation sickness [3]: protects the animals against radiation sickness | clinical effect in patients with Alzheimer's disease [4, 21]: improvement of contact and uplift of mood were observed | reactivity to induction of IFN and TNF-α after treatment [4, 21]: induced a state of hyporeactivity or tolerance | time course of hyporeactivity to induction of IFN-γ (FIG. 1) ([4]; patient five, 100 μg tablet every other day for three weeks, then 3-week pause): hyporeactivity appears as early as during the first week

VESYVPLFP [NP, nonapeptide fragment of Colostrinin obtained by chymotrypsin digestion or chemical synthesis]
clinical effect in patients with Alzheimer's disease [4, 22]: improvement of contact and uplift of mood were observed | reactivity to induction of IFN and TNF-α after treatment [4, 22]: induced a state of hyporeactivity or tolerance

phytohaemagglutinin [PHA, reference compound]
Cytokines IFN ([1]; PHA dose 10 μg/ml): 75 ± 66 unit/ml | Cytokines TNF ([1]; PHA dose 10 μg/ml): 83 ± 69 unit/ml
